Laboratory results taken from patent US5795907A, “Gastin and CCK receptor ligands” (James Black Foundation Limited, priority 1994, dated 1998).

Key:
CCKB receptor = molecular target: T1, CCKB receptor (Mus musculus, UniProt P56481); test: CCKB receptor radioligand binding assay in mouse cortical membranes ([125I]-CCK8S); conditions: [125I]-CCK8S 200 pM, 150 min at 21±3°; for Ki: read-out: CCKB pKi (converted)
T1 construct: The cortex was dissected, weighed and homogenised in 40ml ice-cold buffer; tissue Charles River (supplier of the CD1 mice); host or cells: cerebral cortex membranes of male CD1 mice
T1 sequence (P56481 1-453): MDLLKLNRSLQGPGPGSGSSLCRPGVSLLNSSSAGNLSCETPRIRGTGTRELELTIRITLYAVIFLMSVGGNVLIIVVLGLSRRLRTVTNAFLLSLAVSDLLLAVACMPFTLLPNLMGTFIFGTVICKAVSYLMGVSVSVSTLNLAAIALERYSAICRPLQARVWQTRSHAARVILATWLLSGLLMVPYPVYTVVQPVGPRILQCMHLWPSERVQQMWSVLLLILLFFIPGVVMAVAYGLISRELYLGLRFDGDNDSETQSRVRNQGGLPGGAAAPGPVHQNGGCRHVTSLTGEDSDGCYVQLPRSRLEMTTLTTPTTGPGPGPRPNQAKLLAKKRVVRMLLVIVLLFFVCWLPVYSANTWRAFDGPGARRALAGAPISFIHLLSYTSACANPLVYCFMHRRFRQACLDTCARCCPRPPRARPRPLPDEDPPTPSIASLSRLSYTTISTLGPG
In short: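 This was competition binding with tracer [125I]-CCK8S (200 pM solution added), run for 150 min at 21±3° on male CD1 mouse cortex membranes in pH 7.2 HEPES buffer with bacitracin. Filtration then gamma counting gave bound radioactivity. L-365,260 set the non-specific level.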

gastrin = molecular target: T2, gastrin (Rattus norvegicus, UniProt P30553); test: gastrin antagonist activity in an immature rat stomach assay (pentagastrin-stimulated acid secretion); conditions: cumulative pentagastrin dose-response curves after 60 min with drug; for Kb: read-out: Gastrin pKB (converted)
T2 construct: The stomach was lowered into a jacketed organ bath containing 40 ml of buffered solution; from tissue; host or cells: isolated perfused whole stomach of immature rats (ca. 21 days old)
T2 sequence (P30553 1-452): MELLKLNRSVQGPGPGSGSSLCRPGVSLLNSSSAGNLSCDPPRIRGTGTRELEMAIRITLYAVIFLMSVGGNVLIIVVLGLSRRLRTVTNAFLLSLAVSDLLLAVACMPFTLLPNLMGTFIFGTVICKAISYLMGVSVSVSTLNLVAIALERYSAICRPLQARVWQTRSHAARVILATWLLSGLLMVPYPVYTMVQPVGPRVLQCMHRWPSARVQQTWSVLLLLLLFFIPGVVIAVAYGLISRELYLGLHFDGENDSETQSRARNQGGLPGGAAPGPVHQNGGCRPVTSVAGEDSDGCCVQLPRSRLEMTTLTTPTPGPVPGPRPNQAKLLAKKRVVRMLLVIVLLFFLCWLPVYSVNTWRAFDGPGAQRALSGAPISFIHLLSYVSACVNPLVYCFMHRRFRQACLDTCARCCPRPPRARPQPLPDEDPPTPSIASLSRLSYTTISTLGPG
In short: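 Isolated lumen-perfused immature rat stomach (33-50 g, ca. 21 days) in 37° organ bath with 3×10^-8 M 5-methylfurmethide; acid secretion read by pH electrode in perfusate. Compound added to serosal bath after 120 min stabilisation; cumulative pentagastrin dose-response curves begun 60 min later and analysed by the Black et al. method.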

CCKA = molecular target: T3, CCKA (Cavia porcellus, UniProt Q63931); test: CCKA radioligand binding assay in guinea-pig pancreas membranes ([125I]-CCK8(S)); conditions: PD134,308 present, 150 minutes at 21±3°; for Ki: read-out: CCKA pKi (converted)
T3 construct: The pancreatata were homogenised in 40 ml ice-cold HEPES buffer using a polytron; from tissue; host or cells: pancreas membranes of male Dunkin Hartley guinea-pigs
T3 sequence (Q63931 1-430): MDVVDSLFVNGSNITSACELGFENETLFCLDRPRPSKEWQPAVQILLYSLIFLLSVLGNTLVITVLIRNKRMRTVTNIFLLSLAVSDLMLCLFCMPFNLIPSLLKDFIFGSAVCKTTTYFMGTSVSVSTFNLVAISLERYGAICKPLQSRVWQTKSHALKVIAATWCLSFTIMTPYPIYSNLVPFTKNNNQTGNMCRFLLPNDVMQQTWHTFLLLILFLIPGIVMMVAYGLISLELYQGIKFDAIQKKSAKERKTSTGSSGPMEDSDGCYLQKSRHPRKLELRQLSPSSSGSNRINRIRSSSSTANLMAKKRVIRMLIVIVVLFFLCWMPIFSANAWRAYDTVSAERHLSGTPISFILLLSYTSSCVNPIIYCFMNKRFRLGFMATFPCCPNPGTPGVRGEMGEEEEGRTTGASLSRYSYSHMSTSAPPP
In short: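 Competition for [125I]-CCK8(S) (added as […] solution) ran for 150 min at 21±3° in HEPES pH 7.2. Membranes came from male guinea-pig pancreas at 1 mg/ml original wet weight, with 0.375 μM PD134,308 in the suspension. Filter-bound counts were gamma-counted; 100 nM L-364,718 (added solution) defined non-specific binding.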

Ki (CCKB receptor) | Kb (gastrin) | Ki (CCKA) | CCKB pKi (CCKB receptor) | Gastrin pKB (gastrin) | CCKA pKi (CCKA) | Molecule
3.98 nM | 0.2 nM | 5010 nM |  |  |  | O=C(O)c1cc(NC(=O)[C@H](Cc2cccc(F)c2)NC(=O)c2cc3[nH]cnc3cc2C(=O)NCC23CC4CC(CC(C4)C2)C3)cc(C(=O)O)c1 [Example 131, 5-(1S-(3,5-dicarboxyphenylaminocarbonyl)-2-(3-fluorophenyl)ethylaminocarbonyl)-6-(1-adamantanemethylaminocarbonyl)-benzimidazole]
0.794 nM | 0.251 nM | 3160 nM |  |  |  | O=C(O)c1cc(NC(=O)[C@H](Cc2ccccc2F)NC(=O)c2cc3cc[nH]c3cc2C(=O)NCC23CC4CC(CC(C4)C2)C3)cc(C(=O)O)c1 [Example 87, 5-(1S-(3,5-dicarboxyphenylaminocarbonyl)-2-(2-fluorophenyl)ethylaminocarbonyl)-6-(1-adamantanemethylaminocarbonyl)-indole]
5.01 nM | 3.16 nM | 158 nM |  |  |  | O=C(NCC12CC3CC(CC(C3)C1)C2)c1cc2cc[nH]c2cc1C(=O)N[C@@H](Cc1ccccc1)C(=O)Nc1cc(-c2nn[nH]n2)cc(-c2nn[nH]n2)c1 [Example 105, 6-(1S-(3,5-ditetrazolylphenylaminocarbonyl)-2-phenylethylaminocarbonyl)-5-(1-adamantanemethylaminocarbonyl)-indole]
 |  |  | 6.9 | 7.2 | 5.2 | O=C(O)c1cc(NC(=O)[C@H](Cc2ccccc2)NC(=O)c2c(C(=O)NCC34CC5CC(CC(C5)C3)C4)ccc3[nH]cnc23)cc(C(=O)O)c1 [Example 113, 4-(1S-(3,5-dicarboxyphenylaminocarbonyl)-2-phenylethylaminocarbonyl)-5-(1-adamantanemethylaminocarbonyl)-benzimidazole]
20 nM | 100 nM | 1000 nM |  |  |  | O=C(O)c1cccc(NC(=O)[C@H](Cc2ccccc2)NC(=O)c2cc3[nH]cnc3cc2C(=O)NCC23CC4CC(CC(C4)C2)C3)c1 [Example 79, 5-(1S-(3-carboxyphenylaminocarbonyl)-2-phenylethylaminocarbonyl)-6-(1-adamantanemethylaminocarbonyl)-benzimidazole]
 |  |  | 7.4 | 8.0 | 5.3 | O=C(O)CNC(=O)[C@@H](Cc1ccccc1)NC(=O)c1cc2cc[nH]c2cc1C(=O)NCC12CC3CC(CC(C3)C1)C2 [Example 91, 5-(1R-(carboxymethylaminocarbonyl)-2-phenylethylaminocarbonyl)-6-(1-adamantanemethylaminocarbonyl)-indole]
 |  |  | 8.3 | 9.1 | 5.4 | 5-(1S-(3,5-dicarboxyphenylaminocarbonyl)-2-phenylethylaminocarbonyl)-6-(1-adamantanemethylaminocarbonyl)-benzofuran [Example 122]
 |  |  | 6.5 | 6.8 | 5.7 | COC(=O)c1cc(NC(=O)[C@H](Cc2ccccc2)NC(=O)c2cc3ccoc3cc2C(=O)NCC23CC4CC(CC(C4)C2)C3)cc(C(=O)OC)c1 [Example 124, 5-(1S-(3,5-dimethoxycarbonylphenylaminocarbonyl)-2-phenylethylaminocarbonyl)-6-(1-adamantanemethylaminocarbonyl)-benzofuran]
5.01 nM | 1.26 nM | 3160 nM |  |  |  | O=C(O)c1cc(NC(=O)C(Cc2ccc(F)cc2F)NC(=O)c2cc3[nH]cnc3cc2C(=O)NCC23CC4CC(CC(C4)C2)C3)cc(C(=O)O)c1 (racemic) [Example 85, (±)-5-(1-(3,5-dicarboxyphenylaminocarbonyl)-2-(2,4-difluorophenyl)ethylaminocarbonyl)-6-(1-adamantanemethylaminocarbonyl)-benzimidazole]
1.26 nM | 0.316 nM | > 10000 nM |  |  |  | O=C(O)c1cc(NC(=O)C(Cc2c(F)c(F)c(F)c(F)c2F)NC(=O)c2cc3[nH]cnc3cc2C(=O)NCC23CC4CC(CC(C4)C2)C3)cc(C(=O)O)c1 (racemic) [Example 136, (±)-5-(1-(3,5-dicarboxyphenylaminocarbonyl)-2-pentafluorophenylethylaminocarbonyl)-6-(1-adamantanemethylaminocarbonyl)-benzimidazole]
25.1 nM | 1.58 nM | 794 nM |  |  |  | O=C(O)c1cc(NC(=O)[C@H](Cc2ccc(I)cc2)NC(=O)c2cc3[nH]cnc3cc2C(=O)NCC23CC4CC(CC(C4)C2)C3)cc(C(=O)O)c1 [Example 134, 5-(1S-(3,5-dicarboxyphenylaminocarbonyl)-2-(4-iodophenyl)ethylaminocarbonyl)-6-(1-adamantanemethylaminocarbonyl)-benzimidazole]
316 nM | 79.4 nM | 7940 nM |  |  |  | O=C(O)c1cc(NC(=O)[C@H](Cc2c[nH]cn2)NC(=O)c2cc3[nH]cnc3cc2C(=O)NCC23CC4CC(CC(C4)C2)C3)cc(C(=O)O)c1 [Example 69, 5-(1S-(3,5-dicarboxyphenylaminocarbonyl)-2-(2,4-imidazolyl)ethylaminocarbonyl)-6-(1-adamantanemethylaminocarbonyl)-benzimidazole]
1.26 nM | 0.316 nM | 2000 nM |  |  |  | O=C(O)c1cc(NC(=O)[C@H](Cc2ccccc2)NC(=O)c2cc3cc[nH]c3cc2C(=O)NCC23CC4CC(CC(C4)C2)C3)cc(C(=O)O)c1 [Example 24, 5-(1S-(3,5-dicarboxyphenylaminocarbonyl)-2-phenylethylaminocarbonyl)-6-(1-adamantanemethylaminocarbonyl)-indole]
5.01 nM | 2.51 nM | 2510 nM |  |  |  | O=C(O)c1cc(NC(=O)[C@H](Cc2ccccc2F)NC(=O)c2cc3[nH]ccc3cc2C(=O)NCC23CC4CC(CC(C4)C2)C3)cc(C(=O)O)c1 [Example 88, 6-(1S-(3,5-dicarboxyphenylaminocarbonyl)-2-(2-25 fluorophenyl)ethylaminocarbonyl)-5-(1-adamantaneinetnyl-aminocarbonyl)-indole]
 | 63.1 nM | 6310 nM | 6.3 |  |  | CN(C(=O)[C@H](Cc1ccccc1)NC(=O)c1cc2[nH]cnc2cc1C(=O)NCC12CC3CC(CC(C3)C1)C2)c1cc(C(=O)O)cc(C(=O)O)c1 [Example 73, 5-(1S-(3,5-dicarboxyphenyl-N-(methyl)amino-carbonyl)-2-phenylethylaminocarbonyl)-6-(1-adamantane-methylaminocarbonyl)-benzimidazole]

Molecule | Ki (CCKB receptor) | Kb (gastrin) | Ki (CCKA) | CCKB pKi (CCKB receptor) | Gastrin pKB (gastrin) | CCKA pKi (CCKA)
CC(=O)Oc1cc(OC(C)=O)c2cc(C(=O)N[C@@H](Cc3ccccc3)C(=O)Nc3cc(C(=O)O)cc(C(=O)O)c3)c(C(=O)NCC34CC5CC(CC(C5)C3)C4)cc2c1 [Example 53, 3-(1S-(3,5-dicarboxyphenylaminocarbonyl)-2-phenylethylaminocarbonyl)-2-(1-adamantanemethylaminocarbonyl)-5,7-diacetoxy-naphthalene] |  |  |  | 8.1 | 7.9 | 6.1
